{"source": "patent EP0632041A1", "about": "“New morphine derivatives having improved analgesic and narcotic properties” (priority 1993, dated 1995)", "key": {"[1]": {"test_system": "rats", "assay": "reflex inhibition and antinociception after intravenous and intrathecal injection in rats", "assay_type": "in vivo", "conditions": "for antinociceptive efficacy: after intrathecal injection; for reflex inhibitory potency: intravenous and intrathecal injection"}, "[2]": {"conditions": "cited from earlier work"}, "[3]": {"target": "κ receptors (Homo sapiens, UniProt P41145)", "sequence (P41145 whole entry, looked up)": "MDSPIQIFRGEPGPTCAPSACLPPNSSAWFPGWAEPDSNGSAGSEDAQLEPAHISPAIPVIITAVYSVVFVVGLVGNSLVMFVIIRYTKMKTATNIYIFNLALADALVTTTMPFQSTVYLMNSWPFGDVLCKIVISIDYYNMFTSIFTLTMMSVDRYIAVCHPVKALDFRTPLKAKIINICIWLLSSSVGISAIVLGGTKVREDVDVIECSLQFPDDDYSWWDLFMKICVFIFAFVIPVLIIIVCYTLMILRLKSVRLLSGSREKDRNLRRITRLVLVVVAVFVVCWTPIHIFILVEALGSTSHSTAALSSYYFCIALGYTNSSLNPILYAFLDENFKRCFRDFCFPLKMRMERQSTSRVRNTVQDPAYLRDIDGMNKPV", "conditions": "binding studies; cited from earlier work"}, "[4]": {"conditions": "compared with prediction and with morphine; cited from earlier work"}, "[5]": {"target": "δ receptors (Homo sapiens, UniProt P41143)", "sequence (P41143 whole entry, looked up)": "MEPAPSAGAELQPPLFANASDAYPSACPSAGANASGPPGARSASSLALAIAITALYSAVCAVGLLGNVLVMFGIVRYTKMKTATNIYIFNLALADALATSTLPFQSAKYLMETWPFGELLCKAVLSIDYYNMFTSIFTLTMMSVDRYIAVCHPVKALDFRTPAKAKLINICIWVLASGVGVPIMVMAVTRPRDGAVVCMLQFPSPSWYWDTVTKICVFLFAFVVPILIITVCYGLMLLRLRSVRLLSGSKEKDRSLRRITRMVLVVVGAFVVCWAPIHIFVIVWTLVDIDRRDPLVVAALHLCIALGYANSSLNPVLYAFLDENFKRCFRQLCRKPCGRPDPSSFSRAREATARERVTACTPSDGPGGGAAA", "conditions": "binding studies; cited from earlier work"}, "[6]": {"target": "µ receptors (Homo sapiens, UniProt P35372)", "sequence (P35372 whole entry)": "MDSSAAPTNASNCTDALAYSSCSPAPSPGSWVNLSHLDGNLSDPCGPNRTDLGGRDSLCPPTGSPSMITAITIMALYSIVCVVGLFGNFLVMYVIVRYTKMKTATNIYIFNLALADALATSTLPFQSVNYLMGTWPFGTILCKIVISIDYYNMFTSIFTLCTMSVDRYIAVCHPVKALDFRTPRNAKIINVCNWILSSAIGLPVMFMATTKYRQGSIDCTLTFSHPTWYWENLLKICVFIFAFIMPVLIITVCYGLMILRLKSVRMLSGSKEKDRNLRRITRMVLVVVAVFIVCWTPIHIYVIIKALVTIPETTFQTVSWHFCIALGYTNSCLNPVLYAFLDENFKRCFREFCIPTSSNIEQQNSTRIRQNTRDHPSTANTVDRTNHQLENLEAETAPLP", "conditions": "binding studies; cited from earlier work"}, "[7]": {"conditions": "pH of 7.4; relative to morphine; cited from earlier work"}, "[8]": {"test_system": "mice", "conditions": "cited from earlier work"}, "[9]": {"conditions": "more potent than morphine; cited from earlier work"}, "[10]": {"test_system": "homogenate of bovine caudate nucleus", "conditions": "cited from earlier work"}, "[11]": {"conditions": "more potent than morphine; cited from earlier work", "remark": "listed apart in the source"}}, "note": "Read-outs that look alike come from different tables or passages of the source."}
{"smiles": "CN1CC[C@]23c4c5ccc(O)c4O[C@H]2[C@@H](NC(=O)c2cccnc2)CC[C@H]3[C@H]1C5", "note": "[7,8-dihydro-6α-nicotinoylaminomorphine]", "values": [{"measurement": "antinociceptive efficacy", "setting": "[1]", "result": "long-lasting antinociceptive efficacy"}, {"measurement": "reflex inhibitory potency", "setting": "[1]", "result": "strong reflex inhibitory potency"}]}
{"smiles": "COc1ccc2c3c1O[C@H]1[C@@H](NC(=O)c4cccnc4)CC[C@H]4[C@@H](C2)N(C)CC[C@@]341", "note": "[7,8-dihydro-6α-nicotinoylaminocodeine]", "values": [{"measurement": "antinociceptive efficacy", "setting": "[1]", "result": "long-lasting antinociceptive efficacy"}, {"measurement": "reflex inhibitory potency", "setting": "[1]", "result": "strong reflex inhibitory potency"}]}
{"smiles": "CN1CC[C@]23c4c5ccc(O[C@@H]6O[C@H](C(=O)O)[C@@H](O)[C@H](O)[C@H]6O)c4O[C@H]2[C@@H](O)C=C[C@H]3[C@H]1C5", "note": "[Example M-3-G]", "values": [{"measurement": "effect of microinjection", "setting": "[2]; microinjection directly into the periaquaductal grey", "result": "without effect"}, {"measurement": "affinity, κ receptors", "setting": "[3]", "result": "poor affinity"}, {"measurement": "lipophilicity", "setting": "[4]", "result": "far more lipophilic than predicted"}, {"measurement": "affinity, δ receptors", "setting": "[5]", "result": "poor affinity"}, {"measurement": "affinity, µ receptors", "setting": "[6]", "result": "poor affinity"}]}
{"smiles": "CN1CC[C@]23c4c5ccc(OC(=O)c6cccnc6)c4O[C@H]2[C@@H](OC(=O)c2cccnc2)C=C[C@H]3[C@H]1C5", "note": "[nicomorphine, 3,6-dinicotinoyl-morphine]", "values": [{"measurement": "lipid solubility higher than that of morphine", "setting": "[7]", "result": "about 10 fold"}]}
{"smiles": "CN1CC[C@]23c4c5ccc(O)c4O[C@H]2[C@@H](O)C=C[C@H]3[C@H]1C5", "note": "[morphine]", "values": [{"measurement": "analgesic potency at both levels of the neuraxis", "setting": "[8]; mouse, in vivo", "result": "equipotent"}]}
{"smiles": "CN1CC[C@]23c4c5ccc(O)c4O[C@H]2[C@@H](O[C@@H]2O[C@H](C(=O)O)[C@@H](O)[C@H](O)[C@H]2O)C=C[C@H]3[C@H]1C5", "note": "[Example M-6-G, morphine-6-glucuronide]", "values": [{"measurement": "antinociceptive potency relative to morphine, writhing", "setting": "[9]", "result": 45, "unit": "fold"}, {"measurement": "seizure activity", "setting": "[2]; high doses", "result": "profound seizure activity"}, {"measurement": "potency relative to morphine following microinjection", "setting": "[2]; microinjection into the periaquaductal grey", "result": "up to 20 fold"}, {"measurement": "analgesic potency relative to morphine", "setting": "[8]; given intrathecally", "result": 90, "unit": "fold"}, {"measurement": "analgesic potency relative to morphine", "setting": "[8]; given intravenously", "result": 650, "unit": "fold"}, {"measurement": "analgesic effectiveness at the level of the spinal cord versus supraspinally", "setting": "[8]; spinal cord compared with supraspinal", "result": "approximately 5 fold"}, {"measurement": "analgesia, effect relative to morphine", "setting": "[8]; subcutaneous administration, mice", "result": "approximately twice"}, {"measurement": "ability to displace ³H-naloxone", "setting": "[10]", "result": "comparable to that of morphine"}, {"measurement": "antinociceptive potency relative to morphine, tail-flick", "setting": "[11]", "result": 61, "unit": "fold"}, {"measurement": "lipophilicity", "setting": "[4]", "result": "far more lipophilic than predicted"}, {"measurement": "affinity, δ receptors", "setting": "[5]", "result": "not"}]}
